Data taken from patent US5488060A, “Substituted thiadiazoles, compositions containing them and their use as antimicrobial and marine antifouling agents” (The Dow Chemical Company, priority 1994, dated 1996).
In brackets after ≈: the same amount, converted by molar mass. Where two headings read alike, the source gives them in different places.

What was measured:
Assay type in all cases: cell-based
[1] = system: Penicillium chrysogenum (Pc); test: Minimum inhibitory concentration (MIC) in malt yeast agar, Penicillium chrysogenum; settings: pH 5.5; malt yeast agar, 30° C., 72 hours for fungi; read-out: Minimum Inhibitory Concentration, PC
Protocol: (§1) The antimicrobial activity of the compounds of the present invention is set forth as the minimum inhibitory concentration (MIC) for the active compounds and is determined for nine (9) bacteria, using nutrient agar, and seven (7) yeast and fungi, using malt yeast agar. This determination is conducted using a one percent solution of the test compound prepared in a mixture of acetone and water.
(§2) Malt yeast agar is prepared at pH 5.5 by adding 3 g yeast extract and 45 g malt agar per liter of deionized water. The specific agar is dispensed in 30 mL aliquots into 25×200 mm test tubes, capped and autoclaved for 15 minutes at 115° C.
(§3) The test tubes containing the agar are cooled in a water bath until the temperature of the agar is 48° C. Then, an appropriate amount of the one percent solution of the test compound is added (except in the controls where no compound is added) to the respective test tubes so that the final concentrations are 500, […], 100, 50, 25, 10, 5, 2.5, 1.0 and zero parts per million of the test compound in the agar, thus having a known concentration of test compound dispersed therein. The contents of the test tubes are then transferred to respective petri plates. After drying for 24 hours, the petri plates containing nutrient agar are inoculated with bacteria and those containing malt yeast agar are inoculated with yeast and fungi.
(§4) The inoculation with the yeast and fungi is accomplished as follows. Cultures of yeast and fungi are incubated for seven days on malt yeast agar at 30° C. These cultures are used to prepare suspensions by the following procedure. A suspension of each organism is prepared by adding 10 mL of sterile saline and 10 microliters of octylphenoxy polyethoxy ethanol to the agar slant of yeast or fungi. The sterile saline/octylphenoxy potyethoxy ethanol solution is then agitated with a sterile swab to suspend the microorganism grown on the slant. Each resulting suspension is diluted into sterile saline (1 part suspension: 9 parts sterile saline). Aliquots of these dilutions are placed in individual wells of Steer's Replicator and petri plates inoculated as previously described. The petri plates are incubated at 30° C. and read after 48 hours for yeast and 72 hours for fungi.

Bacillus subtilis (Bs) = test: Minimum inhibitory concentration (MIC) in nutrient agar, Bacillus subtilis
Protocol: as §1
(§5) Nutrient agar is prepared at pH 6.8, representing a neutral medium, and at pH 8.2, representing an alkaline medium. The nutrient agars are prepared by adding 23 g of nutrient agar to one-liter of deionized water. In addition, the alkaline medium is prepared by adjusting a 0.04M solution of N-[tris-(hydroxymethyl)methyl]glycine buffered deionized water with concentrated sodium hydroxide to a pH of 8.5.
as §3
(§6) The inoculation with bacteria is accomplished by using the following procedure. Twenty-four hour-cultures of each of the bacteria are prepared by incubating the respective bacteria in tubes containing nutrient broth for 24 hours at 30° C. in a shaker. Dilutions of each of the 24 hour-cultures are made so that nine separate suspensions (one for each of the nine test bacteria) are made, each containing 10^8 colony forming units (CFU) per mL of suspension of a particular bacteria. Aliquots of 0.3 mL of each of the bacterial suspensions are used to fill the individual wells of Steer's Replicator. For each microbial suspension, 0.3 mL was used to fill three wells (i.e., three wells of 0.3 mL each) so that for the nine different bacteria, 27 wells are filled. The Steer's Replicator is then used to inoculate both the neutral and alkaline pH nutrient agar petri plates.
(§7) The inoculated petri plates are incubated at 30° C. for 48 hours and then read to determine if the test compound which is incorporated into the agar prevented growth of the respective bacteria.

[2] = system: Staphylococcus aureus (Sa); test: Minimum inhibitory concentration (MIC) in nutrient agar, Staphylococcus aureus
Protocol: as §1, §5, §3, §6, §7

Proteus vulgaris (Pv) = test: Minimum inhibitory concentration (MIC) in nutrient agar, Proteus vulgaris
Protocol: as §1, §5, §3, §6, §7

[3] = system: Salmonella choleraesuis (Se); test: Minimum inhibitory concentration (MIC) in nutrient agar, Salmonella choleraesuis; settings: Salmonella enterica
Protocol: as §1, §5, §3, §6, §7

[4] = system: Pseudomonas aeruginosa (Pa); test: Minimum inhibitory concentration (MIC) in nutrient agar, Pseudomonas aeruginosa
Protocol: as §1, §5, §3, §6, §7

[5] = system: Klebsiella pneumoniae (Kp); test: Minimum inhibitory concentration (MIC) in nutrient agar, Klebsiella pneumoniae
Protocol: as §1, §5, §3, §6, §7

Escherichia coli (Ec) = test: Minimum inhibitory concentration (MIC) in nutrient agar, Escherichia coli
Protocol: as §1, §5, §3, §6, §7

[6] = system: Saccharomyces cerevisiae (Sc); test: Minimum inhibitory concentration (MIC) in malt yeast agar, Saccharomyces cerevisiae; settings: pH 5.5, malt yeast agar, 30° C., 48 hours for yeast, read-out: Minimum Inhibitory Concentration, SC
Protocol: as §1, §2, §3, §4

[7] = system: Enterobacter aerogenes (Ea); test: Minimum inhibitory concentration (MIC) in nutrient agar, Enterobacter aerogenes; settings: Klebsiella aerogenes
Protocol: as §1, §5, §3, §6, §7

Trichoderma viride (Tv) = test: Minimum inhibitory concentration (MIC) in malt yeast agar, Trichoderma viride; settings: pH 5.5; malt yeast agar, 30° C., 72 hours for fungi; read-out: Minimum Inhibitory Concentration, Tv
Protocol: as §1, §2, §3, §4

[8] = system: Pseudomonas aeruginosa (PRD-10); test: Minimum inhibitory concentration (MIC) in nutrient agar, Pseudomonas aeruginosa PRD-10; settings: 48 h
Protocol: as §1, §5, §3, §6, §7

Candida albicans (Ca) = test: Minimum inhibitory concentration (MIC) in malt yeast agar, Candida albicans
Protocol: as §1, §2, §3, §4

[9] = system: Aureobasidium pullulan (Ap); test: Minimum inhibitory concentration (MIC) in malt yeast agar, Aureobasidium pullulan; settings: pH 5.5, read-out: Minimum Inhibitory Concentration, Ap
Protocol: as §1, §2, §3, §4

Aspergillus niger (An) = test: Minimum inhibitory concentration (MIC) in malt yeast agar, Aspergillus niger; settings: pH 5.5; malt yeast agar, 30° C., 72 hours for fungi; read-out: Minimum Inhibitory Concentration, An
Protocol: as §1, §2, §3, §4

Fusarium oxysporum (Fo) = test: Minimum inhibitory concentration (MIC) in malt yeast agar, Fusarium oxysporum
Protocol: as §1, §2, §3, §4

[10] = 48 h, pH 8.2, read-out: Minimum Inhibitory Concentration, Bs
[11] = pH 6.8, nutrient agar, 30° C., 48 hours, read-out: Minimum Inhibitory Concentration, Bs
[12] = 48 h, pH 8.2, read-out: Minimum Inhibitory Concentration, Sa
[13] = pH 6.8, nutrient agar, 30° C., 48 hours, read-out: Minimum Inhibitory Concentration, Sa
[14] = 48 h, pH 6.8, read-out: Minimum Inhibitory Concentration, Pv
[15] = 48 h, pH 8.2, read-out: Minimum Inhibitory Concentration, Pv
[16] = 48 h, pH 6.8, read-out: Minimum Inhibitory Concentration, SC
[17] = 48 h, pH 8.2, read-out: Minimum Inhibitory Concentration, SC
[18] = pH 6.8, nutrient agar, 30° C., 48 hours, read-out: Minimum Inhibitory Concentration, Pa
[19] = pH 8.2, nutrient agar, 30° C., 48 hours, read-out: Minimum Inhibitory Concentration, Pa
[20] = 48 h, pH 8.2, read-out: Minimum Inhibitory Concentration, Kp
[21] = pH 6.8, nutrient agar, 30° C., 48 hours, read-out: Minimum Inhibitory Concentration, Kp
[22] = 48 h, pH 6.8, read-out: Minimum Inhibitory Concentration, Ec
[23] = 48 h, pH 8.2, read-out: Minimum Inhibitory Concentration, Ec
[24] = 48 h, pH 6.8, read-out: Minimum Inhibitory Concentration, Ea
[25] = 48 h, pH 8.2, read-out: Minimum Inhibitory Concentration, Ea
[26] = pH 6.8, read-out: Minimum Inhibitory Concentration, PRD
[27] = pH 8.2, read-out: Minimum Inhibitory Concentration, PRD
[28] = 48 h, pH 5.5, read-out: Minimum Inhibitory Concentration, Ca

| SMILES | MIC (Bacillus subtilis (Bs); [10]) | MIC (Bacillus subtilis (Bs); [11]) | MIC [2, 12] | MIC [2, 13] | MIC (Proteus vulgaris (Pv); [14]) | MIC (Proteus vulgaris (Pv); [15]) | MIC [3, 16] | MIC [3, 17] | MIC [4, 18] | MIC [4, 19] | MIC [5, 20] | MIC [5, 21] | MIC (Escherichia coli (Ec); [22]) | MIC (Escherichia coli (Ec); [23]) | MIC [6] | MIC [7, 25] | MIC [8, 26] | MIC [8, 27] | MIC [9] | MIC (Aspergillus niger (An)) | other results |
| --- | --- | --- | --- | --- | --- | --- | --- | --- | --- | --- | --- | --- | --- | --- | --- | --- | --- | --- | --- | --- | --- |
| COc1cccc(-c2nsnc2SC#N)c1 [Example VII, a-(3-Methoxyphenyl)-3-thiocyanato-1,2,5-thiadiazole] | 250 µg/mL (≈ 1000 µM) | 25 µg/mL (≈ 100 µM) | 500 µg/mL (≈ 2010 µM) | 250 µg/mL (≈ 1000 µM) | > 500 µg/mL | 500 µg/mL (≈ 2010 µM) | > 500 µg/mL | 500 µg/mL (≈ 2010 µM) | > 500 µg/mL | 500 µg/mL (≈ 2010 µM) | 500 µg/mL (≈ 2010 µM) | > 500 µg/mL | > 500 µg/mL | 500 µg/mL (≈ 2010 µM) | 5 µg/mL (≈ 20.1 µM) | 500 µg/mL (≈ 2010 µM) | > 500 µg/mL | 500 µg/mL (≈ 2010 µM) | 5 µg/mL (≈ 20.1 µM) | 10 µg/mL (≈ 40.1 µM) | MIC [1]: 25 µg/mL (≈ 100 µM); MIC [7, 24]: > 500 µg/mL; MIC (Trichoderma viride (Tv)): 5 µg/mL (≈ 20.1 µM); MIC (Candida albicans (Ca); [28]): 50 µg/mL (≈ 201 µM) |
| N#CSc1nsnc1-c1cccnc1 [Example XV, 4-(3-Pyridyl)-3-thiocyanato-1,2,5-thiadiazole] | – | 25 µg/mL (≈ 113 µM) | – | – | – | 500 µg/mL (≈ 2270 µM) | – | 500 µg/mL (≈ 2270 µM) | 500 µg/mL (≈ 2270 µM) | – | 500 µg/mL (≈ 2270 µM) | 100 µg/mL (≈ 454 µM) | – | 500 µg/mL (≈ 2270 µM) | 50 µg/mL (≈ 227 µM) | 500 µg/mL (≈ 2270 µM) | 500 µg/mL (≈ 2270 µM) | 500 µg/mL (≈ 2270 µM) | 50 µg/mL (≈ 227 µM) | 100 µg/mL (≈ 454 µM) | MIC (Bacillus subtilis (Bs); pH 8.2, nutrient agar, 30° C., 48 hours, read-out: Minimum Inhibitory Concentration, Bs): 100 µg/mL (≈ 454 µM); MIC ([2]; 48 h, pH 6.8, read-out: Minimum Inhibitory Concentration, Sa): 50 µg/mL (≈ 227 µM); MIC (Proteus vulgaris (Pv); pH 6.8, nutrient agar, 30° C., 48 hours, read-out: Minimum Inhibitory Concentration, Pv): 100 µg/mL (≈ 454 µM); MIC ([3]; pH 6.8, nutrient agar, 30° C., 48 hours, read-out: Minimum Inhibitory Concentration, SC): 250 µg/mL (≈ 1130 µM); MIC ([4]; 48 h, pH 8.2, read-out: Minimum Inhibitory Concentration, Pa): 500 µg/mL (≈ 2270 µM); MIC (Escherichia coli (Ec); pH 6.8, nutrient agar, 30° C., 48 hours, read-out: Minimum Inhibitory Concentration, Ec): 250 µg/mL (≈ 1130 µM); MIC ([7]; pH 6.8, nutrient agar, 30° C., 48 hours, read-out: Minimum Inhibitory Concentration, Ea): 250 µg/mL (≈ 1130 µM); MIC (Candida albicans (Ca); [28]): 100 µg/mL (≈ 454 µM); MIC (Fusarium oxysporum (Fo); 72 h, pH 5.5, read-out: Minimum Inhibitory Concentration, Fo): 50 µg/mL (≈ 227 µM) |
| COC(=O)c1ccc(-c2nsnc2SCSC#N)cc1 [Example XXVIII] | 500 µg/mL (≈ 1550 µM) | – | 500 µg/mL (≈ 1550 µM) | 500 µg/mL (≈ 1550 µM) | 500 µg/mL (≈ 1550 µM) | > 500 µg/mL | 500 µg/mL (≈ 1550 µM) | > 500 µg/mL | 500 µg/mL (≈ 1550 µM) | > 500 µg/mL | > 500 µg/mL | 500 µg/mL (≈ 1550 µM) | 500 µg/mL (≈ 1550 µM) | 500 µg/mL (≈ 1550 µM) | 250 µg/mL (≈ 773 µM) | > 500 µg/mL | 500 µg/mL (≈ 1550 µM) | > 500 µg/mL | 50 µg/mL (≈ 155 µM) | 100 µg/mL (≈ 309 µM) | MIC (Bacillus subtilis (Bs); 48 h, pH 6.8, read-out: Minimum Inhibitory Concentration, Bs): 500 µg/mL (≈ 1550 µM); MIC [7, 24]: 500 µg/mL (≈ 1550 µM); MIC (Trichoderma viride (Tv)): > 500 µg/mL; MIC (Candida albicans (Ca); pH 5.5, malt yeast agar, 30° C., 48 hours for yeast, read-out: Minimum Inhibitory Concentration, Ca): 500 µg/mL (≈ 1550 µM); MIC (Fusarium oxysporum (Fo); pH 5.5, malt yeast agar, 30° C., 72 hours for fungi, read-out: Minimum Inhibitory Concentration, Fo): 250 µg/mL (≈ 773 µM) |
